This note sets out measurements from US20110301170A1, “Inhibitors of JNK” (priority 2010, published 2011).

In this test the test system is T1, JNK.
T1 construct: Human JNK2α2 assay contains 1 nM enzyme; Human JNK1α1 assay contains 2 nM enzyme
Briefly: JNK Assay in vitro (phosphorylation of GST-ATF2 with [γ-33P] ATP). The class given is biochemical, Human. The conditions noted are these: IC50 affinity values; JNK isoform (JNK1α1, JNK2α2 or JNK3) not stated; Km concentrations of ATP and substrate; 30° C. for 30 min. As for the experimental part:
JNK activity was measured by phosphorylation of GST-ATF2 (19-96) with [-^33P] ATP. […] Human JNK2α2 assay contains 1 nM enzyme, 1 μM ATF2, 8 μM ATP with 1 uCi [γ-^33P] ATP. Human JNK1α1 assay contains 2 nM enzyme, 1 μM ATF2, 6 μM ATP with 1 μCi [γ-^33P] ATP. Human JNK3 (Upstate Biotech #14-501M) assay contains 2 nM enzyme, 1 μM ATF2, 4 μM ATP with 1 μCi [γ-^33P] ATP. The enzyme assay was carried out in the presence or absence of several compound concentrations. JNK and compound were pre-incubated for 10 min., followed by initiation of the enzymatic reaction by adding ATP and the substrate. The reaction mixture was incubated at 30° C. for 30 min. At the end of incubation, the reaction was terminated by transferring 25 μl of the reaction mixture to 150 μl of 10% glutathione Sepharose® slurry (Amersham #27-4574-01) containing 135 mM EDTA. The reaction product was captured on the affinity resin, and washed on a filtration plate (Millipore, MABVNOB50) with phosphate buffered saline for six times to remove free radionucleotide. The incorporation of ^33P into ATF2 was quantified on a microplate scintillation counter (Packard Topcount). Compound inhibition potency on JNK was measured by IC50 value generated from ten concentration inhibition curves fitted into the 3-parameter model: % inhibition=Maximum/(1+(IC50/[Inhibitor])^slope). Data were analyzed on Microsoft Excel for parameter estimation.

As a reminder, the IC50 is the midpoint of a concentration-inhibition curve. `C=C(C)c1cccc2c1ccn2-c1ccnc(N[C@H]2CC[C@H](C(=O)N3CCn4c(C)cnc4C3)CC2)n1` [Compound 10, {4-[4-(4-Isopropenyl-indol-1-yl)-pyrimidin-2-ylamino]-cyclohexyl}-(3-methyl-5,6-dihydro-8H-imidazo[1,2-a]pyrazin-7-yl)-methanone] showed a concentration for half-maximal inhibition (IC50) of 65 nM.
As for `Cc1cnc2n1CCN(C(=O)[C@H]1CC[C@H](Nc3nccc(-n4ccc5c(OC(F)F)cccc54)n3)CC1)C2` [Compound 11, {4-[4-(4-Difluoromethoxy-indol-1-yl)-pyrimidin-2-ylamino]-cyclohexyl}-(3-methyl-5,6-dihydro-8H-imidazo[1,2-a]pyrazin-7-yl)-methanone], the figure is 97 nM; as for `CS(=O)(=O)CCCOc1cccc2c1cnn2-c1ccnc(N[C@H]2CC[C@H](C(=O)N3CCn4cc(C(F)(F)F)nc4C3)CC2)n1` [Compound 13, (4-{4-[4-(3-Methanesulfonyl-propoxy)-indazol-1-yl]-pyrimidin-2-ylamino}-cyclohexyl)-(2-trifluoromethyl-5,6-dihydro-8H-imidazo[1,2-a]pyrazin-7-yl)-methanone], 12 nM; as for `O=C([C@H]1CC[C@H](Nc2nccc(-n3ncc4c(OCC5CCS(=O)(=O)C5)cccc43)n2)CC1)N1CCn2ccnc2C1` (stereo partly shown) [Compound 15, (5,6-Dihydro-8H-imidazo[1,2-a]pyrazin-7-yl)-(4-{4-[4-(1,1-dioxo-tetrahydro-1λ6-thiophen-3-ylmethoxy)-indazol-1-yl]-pyrimidin-2-ylamino}-cyclohexyl)-methanone], 12 nM.
`Cc1nnc2n1CCN(C(=O)[C@H]1CC[C@H](Nc3nccc(-n4ccc5c(OCCCS(C)(=O)=O)cccc54)n3)CC1)C2` [Compound 23, (4-{4-[4-(3-Methanesulfonyl-propoxy)-indol-1-yl]-pyrimidin-2-ylamino}-cyclohexyl)-(3-methyl-5,6-dihydro-8H-[1,2,4]triazolo[4,3-a]pyrazin-7-yl)-methanone] had an IC50 of 32 nM.
As to `O=C([C@H]1CC[C@H](Nc2nccc(-n3ccc4c(OCC5CCS(=O)(=O)C5)cccc43)n2)CC1)N1CCn2cnnc2C1` (stereo partly shown) [Compound 24, (5,6-Dihydro-8H-[1,2,4]triazolo[4,3-a]pyrazin-7-yl)-(4-{4-[4-(1,1-dioxo-tetrahydro-1λ6-thiophen-3-ylmethoxy)-indol-1-yl]-pyrimidin-2-ylamino}-cyclohexyl)-methanone], the IC50 is 17 nM.
With `C=C(C)c1cccc2c1ccn2-c1ccnc(N[C@H]2CC[C@H](C(=O)N3CCn4cnnc4C3)CC2)n1` [Compound 25, (5,6-Dihydro-8H-[1,2,4]triazolo[4,3-a]pyrazin-7-yl)-{4-[4-(4-isopropenyl-indol-1-yl)-pyrimidin-2-ylamino]-cyclohexyl}-methanone] the figure was 191 nM.
With `C=C(C)c1cccc2c1ccn2-c1ccnc(N[C@H]2CC[C@H](C(=O)N3CCn4c(C)nnc4C3)CC2)n1` [Compound 26, {4-[4-(4-Isopropenyl-indol-1-yl)-pyrimidin-2-ylamino]-cyclohexyl}-(3-methyl-5,6-dihydro-8H-[1,2,4]triazolo[4,3-a]pyrazin-7-yl)-methanone] the figure was 174 nM; with `O=C([C@H]1CC[C@H](Nc2nccc(-n3ccc4c(OC(F)F)cccc43)n2)CC1)N1CCn2cnnc2C1` [Compound 27, {4-[4-(4-Difluoromethoxy-indol-1-yl)-pyrimidin-2-ylamino]-cyclohexyl}-(5,6-dihydro-8H-[1,2,4]triazolo[4,3-a]pyrazin-7-yl)-methanone], 269 nM; with `Cc1nnc2n1CCN(C(=O)[C@H]1CC[C@H](Nc3nccc(-n4ccc5c(OC(F)F)cccc54)n3)CC1)C2` [Compound 28, {4-[4-(4-Difluoromethoxy-indol-1-yl)-pyrimidin-2-ylamino]-cyclohexyl}-(3-methyl-5,6-dihydro-8H-[1,2,4]triazolo[4,3-a]pyrazin-7-yl)-methanone], 228 nM.
With `Cc1cccc2c1nnn2-c1ccnc(N[C@H]2CC[C@H](C(=O)N3CCn4cc(C(F)(F)F)nc4C3)CC2)n1` [Compound 33, {4-[4-(4-Methyl-benzotriazol-1-yl)-pyrimidin-2-ylamino]-cyclohexyl}-(2-trifluoromethyl-5,6-dihydro-8H-imidazo[1,2-a]pyrazin-7-yl)-methanone] the figure was 58 nM; with `Cc1cccc2c1nnn2-c1ccnc(N[C@H]2CC[C@H](C(=O)N3CCn4cnnc4C3)CC2)n1` [Compound 34, (5,6-Dihydro-8H-[1,2,4]triazolo[4,3-a]pyrazin-7-yl)-{4-[4-(4-methyl-benzotriazol-1-yl)-pyrimidin-2-ylamino]-cyclohexyl}-methanone], 59 nM.
Consider `Cc1cccc2c1nnn2-c1ccnc(N[C@H]2CC[C@H](C(=O)N3CCn4c(C)nnc4C3)CC2)n1` [Compound 35, {4-[4-(4-Methyl-benzotriazol-1-yl)-pyrimidin-2-ylamino]-cyclohexyl}-(3-methyl-5,6-dihydro-8H-[1,2,4]triazolo[4,3-a]pyrazin-7-yl)-methanone], for which it took 38 nM to reach half-maximal inhibition (IC50).
The compound `O=C([C@H]1CC[C@@H](Nc2nccc(-n3nnc4c(C(F)(F)F)cccc43)n2)CC1)N1CCn2cnnc2C1` [Compound 37, (5,6-Dihydro-8H-[1,2,4]triazolo[4,3-a]pyrazin-7-yl)-{4-[4-(4-trifluoromethyl-benzotriazol-1-yl)-pyrimidin-2-ylamino]-cyclohexyl}-methanone] yielded an IC50 of 180 nM.
As for `CC(C)(O)c1cccc2c1nnn2-c1ccnc(N[C@H]2CC[C@H](C(=O)N3CCn4cnnc4C3)CC2)n1` [Compound 38, (5,6-Dihydro-8H-[1,2,4]triazolo[4,3-a]pyrazin-7-yl)-(4-{4-[4-(1-hydroxy-1-methyl-ethyl)-benzotriazol-1-yl]-pyrimidin-2-ylamino}-cyclohexyl)-methanone], the figure is 49 nM; as for `Cc1nnc2n1CCN(C(=O)[C@H]1CC[C@H](Nc3nccc(-n4nnc5c(C(C)(C)O)cccc54)n3)CC1)C2` [Compound 39, (4-{4-[4-(1-Hydroxy-1-methyl-ethyl)-benzotriazol-1-yl]-pyrimidin-2-ylamino}-cyclohexyl)-(3-methyl-5,6-dihydro-8H-[1,2,4]triazolo[4,3-a]pyrazin-7-yl)-methanone], 31 nM.
As for `Cc1cnc2n1CCN(C(=O)[C@H]1CC[C@H](Nc3nccc(-n4nnc5c(C(C)(C)O)cccc54)n3)CC1)C2` [Compound 41, (4-{4-[4-(1-Hydroxy-1-methyl-ethyl)-benzotriazol-1-yl]-pyrimidin-2-ylamino}-cyclohexyl)-(3-methyl-5,6-dihydro-8H-imidazo[1,2-a]pyrazin-7-yl)-methanone], the figure is 52 nM; as for `O=C([C@H]1CC[C@H](Nc2nccc(-c3cnc4c(C(F)(F)F)cccn34)n2)CC1)N1CCn2cnnc2C1` [Compound 42, (5,6-Dihydro-8H-[1,2,4]triazolo[4,3-a]pyrazin-7-yl)-{4-[4-(8-trifluoromethyl-imidazo[1,2-a]pyridin-3-yl)-pyrimidin-2-ylamino]-cyclohexyl}-methanon], 205 nM; as for `Cc1nnc2n1CCN(C(=O)[C@H]1CC[C@H](Nc3nccc(-c4cnc5c(C(F)(F)F)cccn45)n3)CC1)C2` [Compound 43, (3-Methyl-5,6-dihydro-8H-[1,2,4]triazolo[4,3-a]pyrazin-7-yl)-{4-[4-(8-trifluoromethyl-imidazo[1,2-a]pyridin-3-yl)-pyrimidin-2-ylamino]-cyclohexyl}-methanone], 234 nM.
